Reference: patent publication US6080735A, “Estra-1,3,5(10)-trien derivatives, processes for their preparation and pharmaceutical compositions containing these compounds” (priority 1994, dated 2000)
Where two headings read alike, the source gives them in different places.

Legend:
[1] = tested on: uterus (ovariectomised rats); assay: Uterus weight after oral treatment of ovariectomised rats (oral estrogen effects, sexual function); type: in vivo; conditions: ovariectomised rat, 10 μg/animal/d p.o., d1 to d7
Source text: The adult female experimental animals (breeder: HSD/WIN:WU) were ovariectomised (Day […]). Treatment with one daily oral application of test substances was started two weeks after ovariectomy. All animals were assigned to groups by randomised approach. The experiment was a block design. All animals were weighed twice, prior to and at the end of the experiment. Start and end of treatment were defined as Day 1 (=d1) or Day 7 (=d7). The animals were sacrificed on Day 8. Several organs (uterus, adrenal glands, liver) were removed and weighed and were passed on in deep-frozen condition (-196° C.) for further investigation.

liver = conditions: cited from earlier work
[2] = cited from earlier work
[3] = Blood level after oral application to ovariectomised rats; type: in vivo; conditions: ovariectomised rat, 10 μg/animal/d p.o., d1 to d7
Protocol: Evidence was provided to hepatic estrogenicity in ovariectomised rats: The adult female experimental animals (breeder: HSD/WIN:WU) were ovariectomised (Day […]). Treatment with one daily oral application of test substances was started two weeks after ovariectomy.
Start and end of treatment were defined as Day 1 (=d1) or Day 7 (=d7). The animals were sacrificed on Day 8. Several organs (uterus, adrenal glands, liver) were removed and weighed and were passed on in deep-frozen condition (-196° C.) for further investigation.
Blood was taken from the retrobulbar plexus prior to treatment (d0) as well as on (d4) and (d8), with the animals etherized. The serum thus obtained was used to determine IGF1, angiotensin I, cholesterol and HDL cholesterol.

angiotensin = conditions: EE 30 μg to 20 μg with 150 μg gestagen (desogestrel), cited from earlier work
[4] = cited from earlier work; remark: listed apart in the source
[5] = 0-24 hours from application, Goldzieher

## CN(C)S(=O)(=O)Oc1ccc2c(c1)CC[C@@H]1[C@@H]2CC[C@]2(C)[C@@H](O)C[C@@H]3C[C@]312 [J 982, 17β-hydroxy-14α,15α-methylene-estra-1,3,5(10)-trien-3-yl N,N-dimethylsulfamate]
[1]
  Uterus weight: 193 mg

## CN(C)S(=O)(=O)Oc1ccc2c(c1)CC[C@@H]1[C@@H]2CC[C@]2(C)[C@@H](O)[C@H](O)C[C@@H]12 [J 989, 16α,17β-dihydroxy-estra-1,3,5(10)-trien-3-yl N,N-dimethylsulfamate]
[1]
  Uterus weight: 183 mg

## C#C[C@]1(O)CC[C@H]2[C@@H]3CCc4cc(O)ccc4[C@H]3CC[C@@]21C [Ethinyl estradiol (EE), ethinyl estradiol]
liver; in vivo, po
  Hepatic estrogenicity, in words: Even stronger hepatic estrogenicity
liver; in vivo
  Estrogenic effectiveness in the liver relative to orally administered natural estrogens: eight to ten times as high
[1]
  Uterus weight: 353 mg
[2]; [5]
  highest AUC recorded: 2121 pg·h/mL
  lowest AUC: 284 pg·h/mL
[2]; human, oral, in words
  Oral bioavailability compared with natural estrogens: much better in bioavailability
[3]
  Blood level: 28.9 pg/mL (serum)
angiotensin; six months
  Effect of dose reduction on increased angiotensin levels: marginally reduced values
angiotensin; three months
  Effect of dose reduction on increased angiotensin levels: did not result in reduction

## C[C@]12CC[C@@H]3c4ccc(OS(=O)(=O)O)cc4CC[C@H]3[C@@H]1CCC2=O [estrone sulphate]
[4]; in words
  Bioavailability after oral application: tends to be minimised

## C[C@]12CC[C@@H]3c4ccc(O)cc4CC[C@H]3[C@@H]1CCC2=O [estrone]
[4]; in vivo, po
  Bioavailability after oral application: tends to be minimised

## CCN(CC)S(=O)(=O)Oc1ccc2c(c1)CC[C@@H]1[C@@H]2CC[C@]2(C)[C@@H](O)[C@H](O)C[C@@H]12 [J 984, 16α,17β-dihydroxy-estra-1,3,5(10)-trien-3-yl N,N-diethylsulfamate]
[1]
  Uterus weight: 246 mg

## CC/C(=C(/CC)c1ccc(O)cc1)c1ccc(O)cc1 [DES]
liver; oral, compared with conjugated and natural estrogens
  Hepatic estrogenicity, in words: Even stronger hepatic estrogenicity

## CCN(CC)S(=O)(=O)Oc1ccc2c(c1)CC[C@@H]1[C@@H]2CC[C@]2(C)[C@@H](O)C[C@@H]3C[C@]312 [J 983, 17β-hydroxy-14α,15α-methylene-estra-1,3,5(10)-trien-3-yl N,N-diethylsulfamate]
[1]
  Uterus weight: 349 mg

## C[C@]12CC[C@@H]3c4ccc(O)cc4CC[C@H]3[C@@H]1CC[C@@H]2O [Estradiol (E2), estradiol]
[1]
  Uterus weight: 182 mg
[4]; in vivo, po
  Bioavailability after oral application: tends to be minimised
[3]
  Blood level: 19.2 pg/mL (serum)

## C[C@]12CC[C@@H]3c4ccc(O)cc4CC[C@H]3[C@@H]1C[C@@H](O)[C@@H]2O [Estriol (E3), estriol]
[4]; in words
  Bioavailability after oral application: tends to be minimised
